The values that follow come from ChEMBL document CHEMBL4346735, “Discovery and pharmacological evaluation of indole derivatives as potent and selective RORγt inverse agonist for multiple autoimmune conditions” (Bioorg Med Chem Lett, 2019).

Calls of active or inactive are those of the source. The rule behind the calls is not given here.

Data set [1] has as its target Cytochrome P450 3A4 (Homo sapiens, UniProt P08684). Put plainly: Inhibition of CYP3A4 in human liver microsomes using testosterone as substrate preincubated for 5 mins followed by NADPH addition measured after 10 mins by LC-MS/MS analysis.
Data set [2] addresses Cytochrome P450 2C9 (Homo sapiens, UniProt P11712). Kind of data set: Inhibition of CYP2C9 in human liver microsomes using diclofenac as substrate preincubated for 5 mins followed by NADPH addition measured after 10 mins by LC-MS/MS analysis. On the technique in general: Liver microsomes are a subcellular fraction often used to study metabolism.
Data set [3] in a line: Metabolic stability in human liver microsomes assessed as parent compound remaining at 1 uM preincubated for 5 mins followed by NADPH addition after 30 mins by LC-MS/MS analysis. The class given is ADME, Microsome. To be noted: read-out: Stability.
Data set [4] is described as follows: Volume of distribution at steady state in mouse at 3 mg/kg, iv. The class given is ADME, organism-based. To be noted: in vivo, read-out: Vdss.
Data set [5] can be described thus: Half life in mouse at 3 mg/kg, iv. The class given is ADME, organism-based. To be noted: in vivo.
Data set [6] can be described thus: AUC (0 to 24 hrs) in mouse at 10 mg/kg, po. In kind it is ADME, organism-based. Further details: dose 10 mg/kg, time < 24 hr, route oral. To be noted: in vivo, 24 h.
Data set [7] concerns the target Cytochrome P450 2C19 (Homo sapiens, UniProt P33261). Kind of data set: Inhibition of CYP2C19 in human liver microsomes using (S)-mephenytoin as substrate preincubated for 5 mins followed by NADPH addition measured after 40 mins by LC-MS/MS analysis.
Data set [8] in a line: Oral bioavailability in mouse at 10 mg/kg. To be noted: in vivo. The class given is ADME, organism-based.
Data set [9] concerns the target T1, Cytochrome P450 1A2 (Homo sapiens, UniProt P05177).
T1 sequence (P05177 whole entry): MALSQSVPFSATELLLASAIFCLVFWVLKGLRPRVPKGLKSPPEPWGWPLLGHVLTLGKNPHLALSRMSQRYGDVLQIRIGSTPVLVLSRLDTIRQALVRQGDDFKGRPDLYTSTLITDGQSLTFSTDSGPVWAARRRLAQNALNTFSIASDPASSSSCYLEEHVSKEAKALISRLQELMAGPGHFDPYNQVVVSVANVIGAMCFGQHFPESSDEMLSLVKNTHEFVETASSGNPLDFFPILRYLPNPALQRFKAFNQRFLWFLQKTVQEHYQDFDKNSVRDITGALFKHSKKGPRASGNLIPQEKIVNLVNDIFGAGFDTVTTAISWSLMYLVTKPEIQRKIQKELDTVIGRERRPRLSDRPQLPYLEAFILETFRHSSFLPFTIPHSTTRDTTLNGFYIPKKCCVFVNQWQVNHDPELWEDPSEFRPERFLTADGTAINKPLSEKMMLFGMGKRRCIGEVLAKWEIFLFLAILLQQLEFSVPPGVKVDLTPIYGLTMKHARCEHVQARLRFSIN
Kind of data set: Inhibition of CYP1A2 in human liver microsomes using phenacetin as substrate preincubated for 5 mins followed by NADPH addition measured after 10 mins by LC-MS/MS analysis.

A short description of data set [10]: Cmax in mouse at 10 mg/kg, po. To be noted: in vivo. In kind it is ADME, organism-based. Further details: dose 10 mg/kg, route oral.
Data set [11] is described as follows: Metabolic stability in mouse liver microsomes assessed as parent compound remaining at 1 uM preincubated for 5 mins followed by NADPH addition after 30 mins by LC-MS/MS analysis. The class given is ADME, Microsome. To be noted: read-out: Stability.
Data set [12] can be described thus: Tmax in mouse at 10 mg/kg, po. In kind it is ADME, organism-based. To be noted: in vivo.
For data set [13], the system named is Mus musculus. Put plainly: Immunosuppressive activity in MOG (35 to 55 residues)/pertussis toxin-induced experimental allergic encephalomyelitis C57BL/6J mouse model assessed as decrease in ratio of Th17:Th1 at 10 mg/kg, po qd by intracellular staining method. The class given is functional, organism-based.
Data set [14] is described as follows: Metabolic stability in rat liver microsomes assessed as parent compound remaining at 1 uM preincubated for 5 mins followed by NADPH addition after 30 mins by LC-MS/MS analysis. The class given is ADME, Microsome. To be noted: read-out: Stability.
For data set [15], the species on record is Mus musculus. To be noted: C57BL/6J, at 10 mg/kg.
Description: Immunosuppressive activity in MOG (35 to 55 residues)/pertussis toxin-induced experimental allergic encephalomyelitis C57BL/6J mouse model assessed as reduction in IL-17 production of CNS infiltrating CD4+ Th17 cells at 10 mg/kg, po qd by intracellular staining method
In data set [16] the test system is Mus musculus. Kind of data set: Immunosuppressive activity in MOG (35 to 55 residues)/pertussis toxin-induced experimental allergic encephalomyelitis C57BL/6J mouse model assessed as IFN-gamma production of CNS infiltrating CD4+ Th1 cells at 10 mg/kg, po qd by intracellular staining method. The class given is functional, organism-based.
Data set [17] concerns Mus musculus. Kind of data set: Immunosuppressive activity in MOG (35 to 55 residues)/pertussis toxin-induced experimental allergic encephalomyelitis C57BL/6J mouse model assessed as reduction in disease severity score at 10 mg/kg, po qd measured at day 21 relative to dexamethasone. The class given is functional. To be noted: 504 h.

Chain of Cytochrome P450 2C19 (P33261 whole entry): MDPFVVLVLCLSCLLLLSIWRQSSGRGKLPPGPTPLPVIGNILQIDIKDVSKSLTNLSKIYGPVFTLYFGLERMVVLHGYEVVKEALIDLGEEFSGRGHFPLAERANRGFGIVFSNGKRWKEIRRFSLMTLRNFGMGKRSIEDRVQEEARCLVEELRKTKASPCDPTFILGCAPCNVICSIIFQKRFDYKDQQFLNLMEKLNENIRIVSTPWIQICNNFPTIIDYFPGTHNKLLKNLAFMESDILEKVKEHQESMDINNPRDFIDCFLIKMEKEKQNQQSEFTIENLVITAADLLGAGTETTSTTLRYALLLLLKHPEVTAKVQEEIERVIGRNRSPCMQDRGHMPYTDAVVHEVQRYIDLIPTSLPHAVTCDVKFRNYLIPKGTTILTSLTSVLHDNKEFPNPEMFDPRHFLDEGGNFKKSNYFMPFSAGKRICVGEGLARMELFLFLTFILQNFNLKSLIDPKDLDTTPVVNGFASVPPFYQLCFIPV
Chain of Cytochrome P450 2C9 (P11712 whole entry): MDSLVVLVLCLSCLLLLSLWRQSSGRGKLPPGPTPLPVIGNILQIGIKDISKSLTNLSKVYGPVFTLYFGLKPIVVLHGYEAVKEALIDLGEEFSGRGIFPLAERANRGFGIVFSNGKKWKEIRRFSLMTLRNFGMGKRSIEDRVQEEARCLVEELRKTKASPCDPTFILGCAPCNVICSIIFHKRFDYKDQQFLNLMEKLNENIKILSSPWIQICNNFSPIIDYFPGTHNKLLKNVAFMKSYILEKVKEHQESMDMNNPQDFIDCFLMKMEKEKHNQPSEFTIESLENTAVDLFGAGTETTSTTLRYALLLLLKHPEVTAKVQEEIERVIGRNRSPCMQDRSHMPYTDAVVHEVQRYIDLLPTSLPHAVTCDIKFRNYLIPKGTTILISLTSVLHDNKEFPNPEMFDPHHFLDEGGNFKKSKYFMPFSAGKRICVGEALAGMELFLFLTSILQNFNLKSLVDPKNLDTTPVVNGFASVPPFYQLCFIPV
Chain of Cytochrome P450 3A4 (P08684 whole entry): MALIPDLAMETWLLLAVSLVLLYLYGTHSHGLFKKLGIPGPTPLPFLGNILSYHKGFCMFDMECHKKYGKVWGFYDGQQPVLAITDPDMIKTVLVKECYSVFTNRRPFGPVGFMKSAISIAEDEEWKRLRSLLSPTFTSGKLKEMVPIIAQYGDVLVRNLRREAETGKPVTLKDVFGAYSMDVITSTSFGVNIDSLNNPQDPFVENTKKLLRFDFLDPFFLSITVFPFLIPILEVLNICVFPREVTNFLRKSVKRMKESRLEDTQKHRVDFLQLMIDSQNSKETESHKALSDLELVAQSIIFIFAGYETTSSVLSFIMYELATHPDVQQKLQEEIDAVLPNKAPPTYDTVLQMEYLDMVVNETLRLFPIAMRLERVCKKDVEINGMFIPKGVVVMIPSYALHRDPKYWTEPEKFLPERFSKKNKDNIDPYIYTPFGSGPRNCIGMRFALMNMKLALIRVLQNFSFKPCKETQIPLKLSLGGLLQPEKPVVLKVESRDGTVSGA

In general, IC50 refers to the concentration at which inhibition is half-maximal. In general, half-life refers to how long it takes for the measured level to halve. Read a low half-life as fast loss. By AUC is commonly meant concentration integrated over time. The low end stands for low exposure, the high end for high exposure. In general, Cmax refers to the maximum level reached in the sampled fluid or tissue. The term Tmax denotes the time at which the peak concentration occurs. Usually inhibition in vivo stands for the change of the read-out against control, counted positive when it falls. On to `CCS(=O)(=O)c1ccc(CC(=O)Nc2cc(Cl)c(-c3ccccc3OC(F)(F)F)c(Cl)c2)cc1`, for which the IC50 in data set [1] was more than 50 µM; in data set [2] it was 2.1 µM; in data set [7] it was 9.6 µM; in data set [9], more than 50 µM. Moreover, the remaining at 0.5 h, 1 µM in data set [3] was found to be 100%; in data set [11], 70%; in [14], 65%. Besides, the Vd in [4] stood at 3.5 L/kg. The half-life in [5] is 10.7 h. In data set [6], this compound displayed an AUC of 22.3 µM·h. This compound also showed a F in data set [8] of 79%. The same compound displayed a Cmax in [10] of 3000 nM. In [12], the Tmax amounted to 2 h. Moreover, the inhibition entry in data set [13] and in data set [15] was “Active” each time. Also, the inhibition result in data set [16] was “inactive”. The inhibition in vivo at 10 mg/kg in data set [17] is 24%.
